Patent US6132740A, “Resorcinol derivatives” (Pfizer Inc., priority 1998, dated 2000)
Several values for one entry are separate records, joined by “and”; a condition that tells them apart may be missing. Equal values may be shown once.

Columns and labels:
black guinea pigs = experiment: In vivo depigmentation study in black guinea pigs; parameters: species or system guinea pig; conditions: for depigmentation of skin (in words): 5% in ethanol:propylene glycol 70:30, twice daily, 5 days per week for 4-8 weeks, black or dark brown guinea pigs; for reduction of pigmentation in treated ears (in words) / reversibility of the depigmentation effect (in words) / Depigmentation effect, Δ light reflectance (treated ear - untreated ear), 1 week post-treatment / Depigmentation effect, Δ light reflectance (treated ear - untreated ear), 3-week / Depigmentation effect, Δ light reflectance (treated ear - untreated ear), 6-week / Depigmentation effect, Δ light reflectance (treated ear - untreated ear), 8.5 week: 5% in ethanol:propylene glycol (70:30); for reduction of pigmentation in treated ears (in words) / reversibility of the depigmentation effect (in words): ears of black guinea pigs; for reversibility of the depigmentation effect (in words): after ceasing treatment; for Depigmentation effect, Δ light reflectance (treated ear - untreated ear), 1 week post-treatment / Depigmentation effect, Δ light reflectance (treated ear - untreated ear), 3-week / Depigmentation effect, Δ light reflectance (treated ear - untreated ear), 6-week / Depigmentation effect, Δ light reflectance (treated ear - untreated ear), 8.5 week: topical to ears of black guinea pigs, one value per animal; for Depigmentation effect, Δ light reflectance (treated ear - untreated ear), 3-week / Depigmentation effect, Δ light reflectance (treated ear - untreated ear), 6-week / Depigmentation effect, Δ light reflectance (treated ear - untreated ear), 8.5 week: positive value indicates depigmentation
Procedure: Black or dark brown guinea pigs with homogeneous skin color can be used in this study. A solution of the test compound of formula I (5% in ethanol:propylene glycol, 70:30) and the vehicle control are applied to the animals twice daily, 5 days per week for 4-8 weeks.
In vivo experiments were carried out to determine the depigmenting effects of 4-cyclohexylresorcinol and 4-cyclopentylresorcinol using the assay described above (in vivo study). Thus, 5% 4-cyclohexylresorcinol and 5% 4-cyclopentylresorcinol, each in ethanol:propylene glycol (70:30), were administered separately to the ears of black guinea pigs. Depigmentation was determined by subtracting the light reflectance of untreated ears from the light reflectance of treated ears.

human tyrosinase = target: T1, human tyrosinase (Homo sapiens, UniProt P14679); experiment: Tyrosinase (DOPA oxidase) assay using cell lysate; type: biochemical; conditions: SKMEL 188 human melanoma cell lysate, L-DOPA 100 μg/ml, 8 hours, read at 405 nm
T1 construct: endogenous in cells; host or cells: SKMEL 188 human melanoma cell line (licensed from Memorial Sloan-Kettering), lysate
Procedure: 1. Tyrosinase (DOPA oxidase) Assay Using Cell Lysate:
Human melanoma cell line, SKMEL 188 (licensed from Memorial Sloan-Kettering), is used in the cell lysate assay and the screen. In the assay, compounds and L-dihydroxyphenylalanine (L-DOPA) (100 μg/ml) are incubated with the cell lysates containing human tyrosinase for 8 hours before the plates are read at 405 nm. Potency of the compounds in DOPA oxidase assay is correlated very well with that in tyrosine hydroxylase assay using 3H-tyrosine as a substrate.

T1 sequence (P14679 19-529): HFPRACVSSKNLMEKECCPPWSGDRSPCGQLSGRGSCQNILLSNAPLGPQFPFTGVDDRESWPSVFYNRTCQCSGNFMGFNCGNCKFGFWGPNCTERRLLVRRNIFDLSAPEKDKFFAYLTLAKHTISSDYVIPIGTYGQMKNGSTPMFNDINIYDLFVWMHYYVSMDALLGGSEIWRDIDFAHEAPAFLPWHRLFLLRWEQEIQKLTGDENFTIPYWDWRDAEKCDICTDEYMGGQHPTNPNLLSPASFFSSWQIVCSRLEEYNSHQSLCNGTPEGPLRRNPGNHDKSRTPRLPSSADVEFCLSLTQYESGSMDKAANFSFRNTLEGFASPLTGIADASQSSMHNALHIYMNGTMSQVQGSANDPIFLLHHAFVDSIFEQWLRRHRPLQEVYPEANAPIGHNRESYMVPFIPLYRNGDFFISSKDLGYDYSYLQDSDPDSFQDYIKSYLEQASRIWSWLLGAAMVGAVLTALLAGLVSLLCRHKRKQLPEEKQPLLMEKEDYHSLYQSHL

Row | Structure (SMILES) | depigmentation of skin (in words) (black guinea pigs) | reduction of pigmentation in treated ears (in words) (black guinea pigs) | reversibility of the depigmentation effect (in words) (black guinea pigs) | Depigmentation effect, Δ light reflectance (treated ear - untreated ear), 1 week post-treatment (black guinea pigs) | Depigmentation effect, Δ light reflectance (treated ear - untreated ear), 3-week (black guinea pigs) | Depigmentation effect, Δ light reflectance (treated ear - untreated ear), 6-week (black guinea pigs) | Depigmentation effect, Δ light reflectance (treated ear - untreated ear), 8.5 week (black guinea pigs) | IC50 (human tyrosinase) [nM]
1 | Oc1ccc(C2CCCC2)c(O)c1 [4-cyclopentylresorcinol, 4-Cyclopentylresorcinol] | depigmentation of skin was visualized | reduced pigmentation in treated ears starting 3 weeks after initial treatment | reversible, and repigmentation partially resumed one week after ceasing treatment | 6 | 15 and 9 and 4 | 12 and 9 | 10 and 18 and 7 | 
2 | Oc1ccc(C2CCCCC2)c(O)c1 [4-cyclohexylresorcinol, 4-Cyclohexylresorcinol] | depigmentation of skin was visualized | reduced pigmentation in treated ears starting 3 weeks after initial treatment | reversible, and repigmentation partially resumed one week after ceasing treatment | 1 and 0 | 13 and 0 and 14 and 3 | 8 and 0 and 14 and 7 | 6 and 7 and 19 | 300
